Test: Normal organ dosimetry Cycle 1: SPECT/CT, TIACs, OLINDA 2.2.3 absorbed radiation dose
Type: in vivo, human
Conditions: for Absorbed Dose, Mean / Absorbed Dose, max / Absorbed Dose, median / Absorbed Dose, min: n = 26
Method: This Example presents the biodistribution, dosimetry, and pharmacokinetics (PK) results of a PK/Dosimetry sub-study performed as part of a Phase III trial. Twenty-seven (27) patients were administered a target activity of 7.4±10% GBq of ^177Lu-PSMA-I&T and underwent single photon emission computed tomography (SPECT)/computed tomography (CT) imaging at four timepoints (4 h, 24 h, 48 h, and 168 h). Image data was analysed to compute time-activity curves (TACs) and subsequently time-integrated activity coefficients (TIACs) in each organ of interest and in organs showing appreciable and meaningful ^177Lu-PSMA-I&T activity. Organ Level Internal Dose Assessment (OLINDA 2.2.3) was used to compute organ and whole body absorbed radiation doses for each patient.
All participating sites underwent a rigorous site setup process during which all dose calibrators, scanners, and gamma counters used in the sub-study were calibrated. Sites were allowed to enroll patients in the sub-study only after the completion and approval of all site setup processes by Invicro. Patients underwent SPECT/CT imaging, with anatomical coverage typically extending from the salivary glands to the pelvis, following the administration of a targeted 7.4±10% GBq of ^177Lu-PSMA-I&T at cycle 1. SPECT/CT imaging was performed at four timepoints: 4 h, 24 h, 48 h, and 168 h post-injection. Additionally, a subset of patients imaged at Cycle 1 (16 out of 27), were also imaged at Cycle 3 (Table 2).
The imaging data was analyzed using Invicro's VivoQuant software, a validated software used in a 21 CFR § 11-compliant workflow. The general quantification approach was based on the principles detailed in the Medical Internal Radiation Dose (MIRD) Pamphlet No. 16, No 23, and No 26 as appropriate.
Volume of interest (VOI) (kidneys, bladder, liver, lumbar vertebrae L2-L4, lacrimal glands, salivary glands [parotid and submandibular glands], and whole body) were delineated on each dataset by a trained image analyst. […] Organs were segmented either by drawing the entire contour of the organ, or by placing a sphere in a representative region of the organ and then multiplying by the organ's effective mass (based on patient's height and weight). Segmentation methods for each organ are specified in Table 3 and were consistently applied to each patient.
Clearance of the radiopharmaceutical was derived from a data-appropriate fit of each organ's TAC. Depending on the TAC's shape, the data was fitted with the sum of one, two, or three exponentials, or using a rise and fall model. Fitting was performed with in-house Python software. TIACs were calculated through analytical integration of the curve fit extrapolated to infinity. […] A whole-body TAC was derived from delineating the imaged body. The remainder activity was determined by subtracting the cumulative organ TIACs from the whole body TIAC.
Organ TIACs were input into OLINDA 2.2.3 for the computation of organ and whole-body absorbed doses, using International Commission on Radiological Protection (ICRP)-103 weighing factors. The ICRP-89 derived male phantom was used for dose estimation. Organs and body mass as defined by ICRP-89 were scaled based on height and mass using patient effective mass.^4 The voiding bladder model as implemented in OLINDA was used to determine bladder TIAC, assuming a voiding interval of 4 hours. The human alimentary tract model (HAT model) described in ICRP 100 and implemented in OLINDA was used to compute doses to the small intestine, right colon, left colon and rectum for patients showing clearance through the GI tract. The fraction of injected activity (fIA) cleared via the GI tract was determined by taking the peak fIA in the GI tract over all the imaging timepoints. […] The Red Marrow mass in L2-L4 was assumed to be 6.7% of the total red marrow mass.

[1] = Adrenals, 16 patients imaged at cycle 1 and 3
[2] = Brain, 16 patients imaged at cycle 1 and 3
[3] = Cycle 1, target activity 7.4±10% GBq, patients with mCRPC
[4] = Esophagus, 16 patients imaged at cycle 1 and 3
[5] = Eyes, 16 patients imaged at cycle 1 and 3
[6] = Gallbladder wall, 16 patients imaged at cycle 1 and 3
[7] = Heart wall, 16 patients imaged at cycle 1 and 3

O=C([O-])CC[C@H](NC(=O)N[C@@H](CCCCNC(=O)CCCCCCC(=O)NCCCC[C@@H](NC(=O)[C@@H](Cc1ccccc1)NC(=O)[C@@H](Cc1ccc(O)c(I)c1)NC(=O)CC[C@H](C(=O)[O-])N1CCN(CC(=O)[O-])CCN(CC(=O)[O-])CCN(CC(=O)[O-])CC1)C(=O)[O-])C(=O)[O-])C(=O)[O-].[177Lu+3].[H+].[H+].[H+].[H+].[H+] [^177Lu-PSMA I&T, (3S,7S,26R,29R,32R,37R)-29-benzyl-32-(4-hydroxy-3-iodobenzyl)-5,13,20,28,31,34-hexaoxo-37-(4,7,10-tris(carboxymethyl)-1,4,7,10-tetraazacyclododecan-1-yl)-4,6,12,21,27,30,33-heptaazaheptatriacontane-1,3,7,26,37-pentacarboxylic acid; lutetium-177 (III)]
Absorbed Dose in Cycle 1, Mean [1]: 0.02 Gy/GBq
Absorbed Dose in Cycle 1, max [1]: 0.08 Gy/GBq
Absorbed Dose in Cycle 1, min [1]: 0.01 Gy/GBq
Absorbed Dose, Mean (Adrenals, Cycle 1): 0.02 Gy/GBq
Absorbed Dose, max (Adrenals, Cycle 1): 0.08 Gy/GBq
Absorbed Dose, median (Adrenals, Cycle 1): 0.02 Gy/GBq
Absorbed Dose, min (Adrenals, Cycle 1): 0.01 Gy/GBq
Absorbed Dose in Cycle 1, Mean (Adrenals, N = 16): 0.02 Gy/GBq
Absorbed Dose in Cycle 1, max (Adrenals, N = 16): 0.08 Gy/GBq
Absorbed Dose in Cycle 1, min (Adrenals, N = 16): 0.01 Gy/GBq
Absorbed Dose in Cycle 1, Mean [2]: 0.01 Gy/GBq
Absorbed Dose in Cycle 1, max [2]: 0.07 Gy/GBq
Absorbed Dose in Cycle 1, min [2]: 0.00 Gy/GBq
Absorbed Dose, Mean (Brain, Cycle 1): 0.01 Gy/GBq
Absorbed Dose, max (Brain, Cycle 1): 0.07 Gy/GBq
Absorbed Dose, median (Brain, Cycle 1): 0.01 Gy/GBq
Absorbed Dose, min (Brain, Cycle 1): 0.00 Gy/GBq
Absorbed Dose in Cycle 1, Mean (Brain, N = 16): 0.01 Gy/GBq
Absorbed Dose in Cycle 1, max (Brain, N = 16): 0.07 Gy/GBq
Absorbed Dose in Cycle 1, min (Brain, N = 16): 0.00 Gy/GBq
mean red marrow (bone marrow) absorbed radiation dose (Cycle 1, image-based, L2-L4): 0.08±0.12 Gy/GBq
mean red marrow absorbed dose (Cycle 1, remaining 20 patients, excluding six high-marrow-dose cases and the superscan patient): 0.02±0.02 Gy/GBq
absorbed radiation dose, salivary glands (mean ± SD) (Cycle 1, target activity 7.4±10% GBq, patient 12-004 excluded): 0.19±0.16 Gy/GBq
absorbed radiation dose, kidneys (mean ± SD) [3]: 0.41±0.15 Gy/GBq
absorbed radiation dose, lacrimal glands (mean ± SD) [3]: 0.40±0.36 Gy/GBq
absorbed radiation dose, left colon (mean ± SD) [3]: 0.47±0.31 Gy/GBq
absorbed radiation dose, rectum (mean ± SD) [3]: 0.44±0.30 Gy/GBq
absorbed radiation dose, urinary bladder (mean ± SD) [3]: 0.41±0.05 Gy/GBq
Absorbed Dose in Cycle 1, Mean [4]: 0.01 Gy/GBq
Absorbed Dose in Cycle 1, max [4]: 0.07 Gy/GBq
Absorbed Dose in Cycle 1, min [4]: 0.00 Gy/GBq
Absorbed Dose, Mean (Esophagus, Cycle 1): 0.02 Gy/GBq
Absorbed Dose, max (Esophagus, Cycle 1): 0.07 Gy/GBq
Absorbed Dose, median (Esophagus, Cycle 1): 0.01 Gy/GBq
Absorbed Dose, min (Esophagus, Cycle 1): 0.00 Gy/GBq
Absorbed Dose in Cycle 1, Mean (Esophagus, N = 16): 0.01 Gy/GBq
Absorbed Dose in Cycle 1, max (Esophagus, N = 16): 0.07 Gy/GBq
Absorbed Dose in Cycle 1, min (Esophagus, N = 16): 0.00 Gy/GBq
Absorbed Dose in Cycle 1, Mean [5]: 0.01 Gy/GBq
Absorbed Dose in Cycle 1, max [5]: 0.07 Gy/GBq
Absorbed Dose in Cycle 1, min [5]: 0.00 Gy/GBq
Absorbed Dose, Mean (Eyes, Cycle 1): 0.01 Gy/GBq
Absorbed Dose, max (Eyes, Cycle 1): 0.07 Gy/GBq
Absorbed Dose, median (Eyes, Cycle 1): 0.01 Gy/GBq
Absorbed Dose, min (Eyes, Cycle 1): 0.00 Gy/GBq
Absorbed Dose in Cycle 1, Mean (Eyes, N = 16): 0.01 Gy/GBq
Absorbed Dose in Cycle 1, max (Eyes, N = 16): 0.07 Gy/GBq
Absorbed Dose in Cycle 1, min (Eyes, N = 16): 0.00 Gy/GBq
Absorbed Dose in Cycle 1, Mean [6]: 0.02 Gy/GBq
Absorbed Dose in Cycle 1, max [6]: 0.07 Gy/GBq
Absorbed Dose in Cycle 1, min [6]: 0.00 Gy/GBq
Absorbed Dose, Mean (Gallbladder wall, Cycle 1): 0.02 Gy/GBq
Absorbed Dose, max (Gallbladder wall, Cycle 1): 0.07 Gy/GBq
Absorbed Dose, median (Gallbladder wall, Cycle 1): 0.01 Gy/GBq
Absorbed Dose, min (Gallbladder wall, Cycle 1): 0.00 Gy/GBq
Absorbed Dose in Cycle 1, Mean (Gallbladder wall, N = 16): 0.02 Gy/GBq
Absorbed Dose in Cycle 1, max (Gallbladder wall, N = 16): 0.07 Gy/GBq
Absorbed Dose in Cycle 1, min (Gallbladder wall, N = 16): 0.00 Gy/GBq
Absorbed Dose in Cycle 1, Mean [7]: 0.01 Gy/GBq
Absorbed Dose in Cycle 1, max [7]: 0.07 Gy/GBq
Absorbed Dose in Cycle 1, min [7]: 0.00 Gy/GBq
Absorbed Dose, Mean (Heart wall, Cycle 1): 0.02 Gy/GBq
Absorbed Dose, max (Heart wall, Cycle 1): 0.07 Gy/GBq
Absorbed Dose, median (Heart wall, Cycle 1): 0.01 Gy/GBq
Absorbed Dose, min (Heart wall, Cycle 1): 0.00 Gy/GBq
Absorbed Dose in Cycle 1, Mean (Heart wall, N = 16): 0.01 Gy/GBq
Absorbed Dose in Cycle 1, max (Heart wall, N = 16): 0.07 Gy/GBq
